Tests used:
[1] = DHR oxidation assay (oxidation of dihydrorhodamine to rhodamine by peroxynitrite); type: biochemical; details: rhodamine fluorescence 485/520 nm, neutral pH
Procedure: Oxidation of Dihydrorhodamine to Rhodamine
The concentration of peroxynitrite is determined by reaction with dihydrorhodamine (DHR) to give rhodamine. The rhodamine fluorescence emission is measured at 520 nm after excitation with light of a wavelength of 485 nm. Catalytic conversion of peroxynitrite by a test substance leads to a decrease in the peroxynitrite concentration and thus also to a decrease in the rhodamine fluorescence, because less DHR can be converted into rhodamine. The search for peroxynitrite-degrading catalysts is carried out at neutral pH. Peroxynitrite is stable for only a few seconds at neutral pH. It is therefore necessary for peroxynitrite to be kept alkaline until contacted with the test substance and DHR as detection reagent. The search for catalysts takes place by rapid mixing of the following components:
10 μl of 10 μM DHR; • 100 μm diethylenetriaminepentaacetic acid in 75 mM Na phosphate buffer at pH 5.6
5 μl of peroxynitrite in 9 mM NaOH
0.75 μl test substance in 30% DMSO/H2O
The measurement takes place in a standard microtiter plate fluorescence measuring apparatus

[2] = tested on: primary neuronal cultures from neonatal rat cerebellum; assay: SIN-1 damage assay with primary neuronal cultures from neonatal rat cerebellum (Cytotoxicity assay); type: cell-based; details: protection against SIN-1 damage, test substance 1 h before SIN-1, Alamar blue readout, read-out: Cytotoxicity assay ED50
Description: SIN-1 Damage Assay with Primary Neuronal Cultures from Neonatal Rat Cerebellum
A primary culture of cells from neonatal rat cerebellum is set up for in vitro testing of substances for neuroprotection against damage induced by peroxy-nitrite. The measurement of cell death or survival of neurons in this culture takes place indirectly through a measurement of the conversion of the dye Alamar blue into its reduced fluorescent form. The peroxynitrite donor SIN-1 (3-morpholinosydnonimine) is used for the damage.
To obtain the cells, Wistar rats (P8) are sacrificed by decapitation, the cerebella are obtained, the meninges are removed from the cerebellum (HBSS (GIBCO, 14025-050) 4° C.), cut up and transferred into a 15 ml Falcon tube, the supernatant is aspirated off, and then the cerebella are trypsinized by adding 500 μl of trypsin/EDTA solution (GIBCO #2530-054)/cerebellum. After incubation (20 min, 37° C.), the trypsinized cerebella are washed 3× with 10 ml of HBSS. This is followed by tritration by addition of 500 μl of 0.05% strength DNAsel (BOEHRINGER MANNHEIM, #14953000) per cerebellum. Using a 5 ml pipette, then a flame-polished Pasteur pipette and finally (if necessary) a drawn-out flame-polished Pasteur pipette, the cells are isolated and mixed with 10 ml of complete medium (100 ml of Neurobasal (GIBCO #21103-049), 1 ml of B27 supplement (GIBCO #17504-044), 0.4 ml of pen/strep (10 000 IU/ml/10 000 UG/ml) (GIBCO #15140-160), 0.8 ml of KCl stock solution (MERCK, 1.04936.0500), 1 ml of L-glutamine (100×-200 mM) (GIBCO #15140-106). The isolated cells are then centrifuged (10 min at 600 rpm), washed 1× with complete medium and resuspended in 20 ml of complete medium, counted and diluted to 2×10^6 ml. 100 μl of complete medium are introduced into each well of a 96-well microtiter plate, and 100 μl of cell suspension are added (=day 1 in vitro). The microtiter plates are previously coated in the following way: 50 μl of poly-L-lysine (MW 70-105 kD) (SIGMA #P-6282) are applied to each well, and the plates are then incubated in an incubator for about 90 min. Before the cells are plated out, the solution is aspirated off again and washed 2× with HBSS and with sterile double-distilled water. 24 h after plating out, the cells are damaged by addition of SIN-1. Test substances are applied 1 h before addition of SIN-1 (single concentration of 10 or 30 μm, or as concentration series, CALBIOCHEM, 567028). Cell function is measured on day 2 (day2 in vitro) with Alamar blue (10 μl/well) (BIOSOURCE INT., DAL1100). Incubation for 3 hours is followed by measurement in a fluorescence reader (Victor, Wallac, extinction 544 nm/emission 590 nm). IC50 values are calculated by the Excel plug-in XLfit.

[3] = Kinetics of the conversion of peroxynitrite into nitrate by UV spectrometry (stopped flow, 301 nm); type: biochemical; details: peroxynitrite rearrangement relative to spontaneous decomposition without catalyst; catalyst added in one-tenth the stoichiometric amount; UV 301 nm
Procedure: Measurement of the Kinetics of the Conversion of Peroxynitrite into Nitrate by UV Spectrometry
The following are used: a UV spectrometer • a stopped flow device with slotted-on cuvette laboratory apparatus for volumetric work reagents (buffers, peroxynitrite solution, catalysts)
The peroxynitrite content of the concentrated peroxynitrite solution is determined. A molar extinction coefficient of ε=1 670 is used as basis. The solution is diluted with water to reach an absorption of about 1.6 at the observation wavelength of 301 nm. The pH of the stock solution produced in this way should not fall below 11.
A solution of the catalyst to be investigated is prepared in phosphate buffer appropriate for the peroxynitrite concentration set, in such a way that, taking account of the given conditions in the stopped flow device, the desired amounts of catalyst solution and peroxynitrite can be brought together for reaction. The buffer of the catalyst solution must have sufficient capacity for it to be possible for the peroxynitrite solution, which is still strongly alkaline, to be adjusted to, and maintained at, the desired pH. The catalysts are added in one-tenth the stoichiometric amount (FIG. 1).
The metering syringes of the stopped flow system are charged with the two solutions and used to charge the cuvette which is present in the UV spectrometer. The absorptions at 301 nm are measured simultaneously. The rearrangement of peroxynitrite to nitrate results in the decrease in the absorption, which assumes a constant value after some time. The rearrangement is complete at this time, and the data recording is stopped.
The measured data are analyzed, and the peroxynitrite concentration can be calculated from the characteristic kinetic data of the plot resulting therefrom. […] In order to take account of the spontaneous decomposition of peroxynitrite, for each peroxynitrite preparation used initially the decomposition behavior of the peroxynitrite solution is found on addition of the buffer without catalyst content, and the relation between the characteristic data thereof and those obtained from a measurement with catalyst is found. [formula]

| SMILES | IC50 [1] | EC50 [2] | Rate constant [3] |
| --- | --- | --- | --- |
| Cc1noc(C)c1S(=O)(=O)Nc1ccc(N2CCCC2)cc1 [Example 1, 3,5-dimethylisoxazole-4-sulfonic acid 4-pyrrolidin-1-ylphenylamide] | 1.1 µM | 4.4 µM | 1.1 |
| Cc1noc(C)c1S(=O)(=O)Nc1ccc(N2CCCC2)cc1C(F)(F)F [Example 2, 3,5-dimethylisoxazole-4-sulfonic acid 4-pyrrolidin-1-yl-2-trifluoromethylphenylamide] | 2.4 µM | 6.6 µM | 1.3 |
| Cc1noc(C)c1S(=O)(=O)Nc1ccc(N2CCCCC2)cc1 [Example 3, 3,5-dimethylisoxazole-4-sulfonic acid 4-piperidin-1-ylphenylamide] | 0.95 µM | 5.3 µM | 1.4 |
| O=S(=O)(Nc1ccc(N2CCCCC2)cc1)c1cccc2cccnc12 [Example 4, quinoline-8-sulfonic acid 4-piperidin-1-ylphenylamide] | 1.1 µM | 8.7 µM | 1.4 |
| COc1cc(N2CCCC2)ccc1NS(=O)(=O)c1cccs1 [Example 5, thiophene-2-sulfonic acid 2-methoxy-4-pyrrolidin-1-ylphenylamide] | 8.1 µM | 5.9 µM | 1.9 |
| O=S(=O)(Nc1ccc(N2CCCC2)cc1)c1cccc2cccnc12 [Example 6, quinoline-8-sulfonic acid 4-pyrrolidin-1-ylphenylamide] | 1.5 µM | 5.2 µM | 1.2 |
| CN1CCN(c2ccc(NS(=O)(=O)c3cccs3)cc2)CC1 [Example 7, thiophene-2-sulfonic acid 4-(4-methyl-piperazin-1-yl)phenylamide] | 1.9 µM | 5.7 µM | 1.3 |
| CN(C)c1ccc(NS(=O)(=O)c2cccs2)c([N+](=O)[O-])c1 [Example 8, thiophene-2-sulfonic acid 4-dimethylamino-2-nitrophenylamide] | 1.6 µM | 6.4 µM | 1.6 |
| Cc1noc(C)c1S(=O)(=O)Nc1ccc(N(C)C)cc1[N+](=O)[O-] [Example 9, 3,5-dimethylisoxazole-4-sulfonic acid 4-dimethylamino-2-nitrophenylamide] | 2 µM | 8.6 µM | 1.6 |

Reference: patent US6946466B2, “Aromatic sulfonamides as peroxynitrite-rearrangement catalysts” (Schering AG, priority 2003, dated 2005)
